According to patent publication US20240398740A1, “THERAPEUTIC COMPOSITION, METHODS, AND USES FOR THE CONTROL OF SEIZURES” (priority 2022, published 2024):
Entries after “also recorded” stand apart in the source; their conditions may differ. Read-outs that look alike come from different tables or passages of the source.

Assays:
fear-potentiated startle = assay: rat fear-potentiated startle (FPS) model of conditioned anxiety; format: in vivo, Long-Evans rats; settings: 35 mg/kg IV
[1] = in vivo
[2] = repeated dosing in healthy adult subjects: BUN, creatinine, serum chloride, urine specific gravity as signs of diuresis; format: in vivo, humans; settings: healthy adults, eight capsules of 16 mg every 24 hours, day 1 to day 8
Method: Pharmacokinetic (PK) blood samples were collected and analyzed pre-dosing to establish baseline levels. Analysis was also done on day1, day 3, day 4, day 5, day 6, day 7, and day 8 following dosing. The samples were analysed for BUN (blood urea nitrogen), creatinine, serum chloride, and urine specific gravity. Diuresis is indicated by an out of proportion increase in serum BUN compared to creatinine (BUN increase out of proportion to creatinine), a decrease in urine specific gravity, and an increase in serum chloride. […] The grey horizontal lines in FIGS. 28-29 are indicative of an upper and a lower range for accepted normal values. The control-subject (placebo) are indicated with white-and-black dashed lines and grey dots.

bicuculline spiking = assay: acute bicuculline seizure focus model in nonhuman primates (surface EEG); format: in vivo, Macaca nemestrina; settings: for effect on bicuculline spiking after oral dose: 10 mg/kg; for block of bicuculline spiking by comparator drugs: IV administration (FIG. 13)
[3] = first-pass metabolism and intramuscular absorption of Bumetanide Dibenzylamide; format: in vivo
Source text: Refinement opportunities may include extended or controlled release oral capsule or tablet or use of a transdermal formulation. Intramuscular data shown below supports the development of a potential transdermal therapy.

epileptiform activity = assay: primate neocortical seizure model; format: in vivo; settings: Furosemide at 10 mg/kg IV, bumetanide at 2 mg/kg IV
Source text: The primate neocortical seizure model was used here for testing the effects of NKCC antagonists on epileptiform activity. This model and the techniques used to analyze the data was originally developed by Haglund and Hochman for the purpose of studying intrinsic optical signals in the human and primate brain, and how these signals could be used to map spread of seizure activity in the neocortex (Haglund et al. 1993, Haglund and Hochman, 2007). […] The afterdischarge protocol developed for human intraoperative studies as shown in the second figure below was also used in primate studies. As well, the physical properties of the optical signals from the brain generated by epileptiform activity (not shown here) (Haglund and Hochman, 2005, Haglund and Hochman 2007).

ADs and hand-twitching = assay: stimulation-evoked afterdischarges (ADs) and hand-twitching in primate model; settings: in vivo
Method: Stimulation-evoked […] evoked by a 4 sec train of 60 Hz biphasic pulses at 4-20 mA using a bipolar stimulating electrode (5 mm interelectrode distance) powered by a constant current source (Ojemann Cortical Stimulator, Integra Life Sciences Corporation, NJ, U.S.A.) placed on the sensory cortex, or by passing current between two of the three surface electrodes. The AD threshold was determined by stimulating at the lowest level that reliably triggered AD activity three times in a row and thresholds remained constant throughout recordings. AD activity was reliably elicited on the sensory cortex during the same experiments in which a bicuculline focus was created on the motor cortex. […] The brain is electrically stimulated for 4 seconds at varying current magnitudes until the “after discharge threshold” is determined: the magnitude of stimulation current that is just sufficient to elicit ADs. The stimulation artifacts are shown in the top lefthand trace, denoted by stars (*). The ADs are shown by orange bars. One can see that, in this case, 7 mA was not sufficient for eliciting ADs, but 8 mA reliably generated ADs. […] In this way, changes in the effect of a treatment on this type of electrical stimulation-evoked epileptiform activity can be quantified by measuring changes in the AD-threshold. From Haglund and Hochman, 2007.

4-AP bursting = 4-AP bursting in primate neocortical seizure model; format: in vivo; settings: Keppra 2×40 mg/kg
[4] = diuresis (urine production) in anesthetized, catheterized macaque monkeys
[5] = tested on: spontaneous interictal spiking; settings: 20 mg IV furosemide; cited from earlier work
afterdischarge activity = settings: cortical stimulation, human patient; cited from earlier work
[6] = tested on: maximal electroshock (MES) seizures; settings: pharmacology review provided to the FDA; cited from earlier work
[7] = tested on: maximal pentylenetetrazol (PTZ) seizures; settings: pharmacology review provided to the FDA; cited from earlier work
[8] = PO gavage, CMC-water suspension, mol-Eq to 10 mg/kg bumetanide, bicuculline-generated spikes, pretreatment vs maximum change
[9] = PO, 10 mg/kg bumetanide or mol-Eq
[10] = PO, mol-Eq to 10 mg/kg bumetanide
[11] = PO, mol-Eq to 10 mg/kg bumetanide, interspike intervals

SMILES: CCCCNc1cc(C(=O)N(Cc2ccccc2)Cc2ccccc2)cc(S(N)(=O)=O)c1Oc1ccccc1 [NPT 2042, N, N-dibenzyl 3-aminosulfonyl-5-butylamino-4-phenoxybenzamide]
- anxiolytic effect in the FPS model (fear-potentiated startle): anxiolytic effect in the FPS model similar in magnitude to that elicited by equivalent (mg/kg) doses of bumetanide
- average rate of urine production after treatment [1]: lower average rate of urine production compared to bumetanide
- percentage change in urine production over time [1]: lower percentage change in urine production over time compared to bumetanide
- rate of urine production over time [1]: lower rate of urine production over time compared to bumetanide
- indication of diuresis (BUN, creatinine, serum chloride, urine specific gravity) [2]: no indication of diuresis
- Average % change in ISI (bicuculline spiking; in vivo): 26%
- Average % change in spike size (bicuculline spiking; in vivo): 35.2%
- Time to 50% recovery for spike sizes (bicuculline spiking; in vivo): 160 min
- Time to 50% recovery of ISI (bicuculline spiking; in vivo): 126 min
- time postinjection of recovery to baseline pretreatment spiking (bicuculline spiking; in vivo): > 155 min
- effect on bicuculline spiking after intravenous dose (bicuculline spiking; in vivo, iv, 2 mg/kg): near-complete blockade of the bicuculline spiking
- time postinjection of traces showing profound, nearly complete blockade of epileptiform activity (bicuculline spiking; in vivo, iv, 2 mg/kg): 72 min
- effect on bicuculline spiking after oral dose (bicuculline spiking; in vivo, po): reduced spike height and frequency of bicuculline spiking; also recorded: transiently mediate a reduction in size and frequency of spiking
- first-pass metabolism by the liver ([3]; in vivo): susceptible to high first-pass metabolism by the liver
- absorption after intramuscular administration ([3]; intramuscular): can be absorbed through the microvessels of the muscle into the circulation

SMILES: CCCCNc1cc(C(=O)O)cc(S(N)(=O)=O)c1Oc1ccccc1 [Bumetanide, 3-(Aminosulfonyl)-5-(butylamino)-4-phenoxybenzoic acid, reference compound]
- anticonvulsant effect in primate seizure model (epileptiform activity): block seizures
- block of ADs and hand-twitching (ADs and hand-twitching): block ADs and hand-twitching
- block of bicuculline spiking by comparator drugs (bicuculline spiking): block bicuculline spiking
- block of bicuculline spiking by comparator drugs (bicuculline spiking; listed as bumetanide): suppress bicuculline spiking
- time postinjection of traces showing profound, nearly complete blockade of epileptiform activity (bicuculline spiking; IV, 2 mg/kg bumetanide or mol-Eq): 81 min
- effect on bicuculline spiking after intravenous dose (bicuculline spiking; IV, 2 mg/kg bumetanide or mol-Eq, in PEG-200): near-complete blockade of the bicuculline spiking
- time postinjection of recovery to baseline pretreatment spiking (bicuculline spiking; IV, 2 mg/kg bumetanide or mol-Eq, NPT 2042 experiment ended before recovery): ~120 min
- Average % change in spike size (bicuculline spiking; [8]): 23.7%
- effect on bicuculline spiking after oral dose (bicuculline spiking; [9]): reduced spike height and frequency of bicuculline spiking; also recorded: transiently mediate a reduction in size and frequency of spiking
- Time to 50% recovery for spike sizes (bicuculline spiking; [10]): 35 min
- Time to 50% recovery of ISI (bicuculline spiking; [10]): 163 min
- Average % change in ISI (bicuculline spiking; [11]): 68.7%
- block of 4-AP bursting (4-AP bursting): block 4-AP bursting
- diuretic response [4, 9]: potent diuretic effect

SMILES: CCCCNc1cc(C(=O)N2CCOCC2)cc(S(N)(=O)=O)c1Oc1ccccc1 [NPT 2024, Bumetanide Morpholino Amide]
- average rate of urine production after treatment [1]: lower average rate of urine production compared to bumetanide
- percentage change in urine production over time [1]: lower percentage change in urine production over time compared to bumetanide
- rate of urine production over time [1]: lower rate of urine production over time compared to bumetanide
- Average % change in spike size (bicuculline spiking; [8]): 44%
- Time to 50% recovery for spike sizes (bicuculline spiking; [10]): 110 min
- Time to 50% recovery of ISI (bicuculline spiking; [10]): 180 min
- Average % change in ISI (bicuculline spiking; [11]): 37.5%
- interspike intervals compared with bumetanide parent (bicuculline spiking; n=4, FIG. 8): dramatic increase in interspike intervals
- spikes per minute compared with bumetanide parent (bicuculline spiking; n=4, FIG. 9): dramatic decrease in spikes per minute
- average spike height compared with bumetanide parent (bicuculline spiking; n=4, FIG. 10): dramatic decrease in the average spike height

SMILES: CCCC(C)C1(CC)C(=O)NC(=S)NC1=O (stereo not shown) [pentothal, sodium thiopental]
- block of 4-AP bursting (4-AP bursting): block 4-AP bursting

SMILES: CCCCNc1cc(C(=O)N(CC)CC)cc(S(N)(=O)=O)c1Oc1ccccc1 [bumetanide diethylamide]
- Average % change in spike size (bicuculline spiking; [8]): 40%
- Time to 50% recovery for spike sizes (bicuculline spiking; [10]): 59 min
- Time to 50% recovery of ISI (bicuculline spiking; [10]): 59 min
- Average % change in ISI (bicuculline spiking; in vivo): 65%
- percentage change in urine production over time ([4]; FIG. 21, compared to bumetanide): lower percentage change in urine production over time compared to bumetanide
- rate of urine production over time ([4]; FIG. 22, compared to bumetanide): lower rate of urine production over time compared to bumetanide
- average rate of urine production after treatment ([4]; FIG. 23, compared to bumetanide): lower average rate of urine production compared to bumetanide

SMILES: NS(=O)(=O)c1cc(C(=O)O)c(NCc2ccco2)cc1Cl [Furosemide, furosemide]
- anticonvulsant effect in primate seizure model (epileptiform activity): block seizures
- diuretic potency relative to bumetanide ([4]; in vivo): about 1/10
- effect on spontaneous interictal spiking [5]: Blockade of Spontaneous Interictal Spiking
- afterdischarge activity after treatment (afterdischarge activity): abruptly blocked
- afterdischarge threshold (afterdischarge activity): increased the afterdischarge threshold

SMILES: CC[C@@H](C(N)=O)N1CCCC1=O [Keppra, Levetiracetam]
- anticonvulsant effect in primate seizure model (epileptiform activity): clear anticonvulsant effect
- block of ADs and hand-twitching (ADs and hand-twitching): does not
- anticonvulsant activity in MES test [6]: no anticonvulsant activity
- block of bicuculline spiking by comparator drugs (bicuculline spiking): block bicuculline spiking; also recorded: suppress bicuculline spiking
- block of 4-AP bursting (4-AP bursting): does NOT block 4-AP bursting
- anticonvulsant activity in PTZ test [7]: no anticonvulsant activity

SMILES: O=C1NC(c2ccccc2)(c2ccccc2)C(=O)N1COP(=O)(O)O [Fosphenatoin]
- block of ADs and hand-twitching (ADs and hand-twitching): block ADs and hand-twitching
- block of bicuculline spiking by comparator drugs (bicuculline spiking): does not
- block of 4-AP bursting (4-AP bursting): block 4-AP bursting
